Test results reported in patent publication US11142515B2, “Pyrazolyl-ureas as kinase inhibitors” (RESPIVERT LIMITED, priority 2014, dated 2021).

How the values were obtained:
Syk = target: T1, Syk (Homo sapiens, UniProt P43405); assay: Syk enzyme inhibition (Z-LYTE FRET); type: biochemical
T1 construct: purchased Life Technologies
Procedure: (§1) The enzyme inhibitory activities of compounds disclosed herein were determined by FRET using synthetic peptides labelled with both donor and acceptor fluorophores (Z-LYTE, Life Technologies, Paisley, UK).
The relevant enzyme (1000 ng/mL, 1400 ng/mL or 2000 ng/mL respectively, 2.5 μL) was incubated with the test compound (either 40 μg/mL, 12 μg/mL, 4 μg/mL, 1.2 μg/mL, 0.4 μg/mL, 0.12 μg/mL, 0.04 μg/mL, 0.012 μg/mL, 0.004 μg/mL or 0.0012 μg/mL, 2.5 μL each) for 2 h at RT. The FRET peptides (8 μM, 2.5 μL), and appropriate ATP solutions (2.5 μL, 800 μM for c-Src, and 60 μM ATP for HCK and Syk) were then added to the enzyme/compound mixtures and incubated for 1 h at RT. Development reagent (protease, 5 μL) was added for 1 h prior to detection in a fluorescence microplate reader (EnVision, Perkin Elmer).
(§2) In all cases, the site-specific protease cleaves non-phosphorylated peptide only and eliminates the FRET signal. Phosphorylation levels of each reaction were calculated using the ratio of coumarin emission (donor) over fluorescein emission (acceptor), for which low ratios indicate high phosphorylation and high ratios indicate low phosphorylation levels.

[1] = tested on: HRV (RV16)-induced IL-8 release in BEAS2B cells; assay: Rhinovirus-induced IL-8 release in BEAS2B cells; type: cell-based, human
Procedure: Human rhinovirus RV16 is obtained from the American Type Culture Collection (Manassas, Va.). Viral stocks are generated by infecting MRC5 cells with HRV until 80% of the cells were cytopathic.
BEAS2B cells are infected with HRV at an MOI of 1.2 and incubated for 1 h at 33° C. with gentle shaking to promote absorption. The cells are then washed with PBS, fresh media added and the cells are incubated for a further 72 h. The supernatant is collected for assay of IL-8 concentrations using a Duoset ELISA development kit (R&D systems, Minneapolis, Minn.). Compounds are added 2 h before HRV infection and 1 h after infection when non-infected HRV is washed out.

GSK 3α enzyme isoform = target: T2, GSK 3α enzyme isoform (Homo sapiens, UniProt P49840); assay: GSK 3α enzyme inhibition (Z-LYTE FRET); type: biochemical
T2 construct: purchased Life Technologies
T2 sequence (P49840 whole entry, canonical isoform): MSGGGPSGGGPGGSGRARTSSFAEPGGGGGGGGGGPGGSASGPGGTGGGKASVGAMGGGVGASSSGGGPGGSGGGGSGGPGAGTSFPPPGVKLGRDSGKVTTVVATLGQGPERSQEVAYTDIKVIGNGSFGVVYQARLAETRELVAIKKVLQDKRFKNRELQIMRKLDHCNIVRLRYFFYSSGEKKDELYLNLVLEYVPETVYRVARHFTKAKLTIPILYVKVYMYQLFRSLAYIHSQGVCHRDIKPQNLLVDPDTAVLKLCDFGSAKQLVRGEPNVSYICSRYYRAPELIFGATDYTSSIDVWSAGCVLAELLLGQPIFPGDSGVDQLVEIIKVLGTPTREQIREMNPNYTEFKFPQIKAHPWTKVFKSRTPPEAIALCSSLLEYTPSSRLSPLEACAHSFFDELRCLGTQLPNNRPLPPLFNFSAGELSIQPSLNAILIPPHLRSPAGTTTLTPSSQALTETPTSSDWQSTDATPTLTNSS
Procedure: as §1
The GSK3a protein (500 ng/mL, 2.5 μL) was incubated with the test compound (2.5 μL at either 40 μg/mL, 12 μg/mL, 4 μg/mL, 1.2 μg/mL, 0.4 μg/mL, 0.12 μg/mL, 0.04 μg/mL, 0.012 μg/mL, 0.004 μg/mL or 0.0012 μg/mL) for 2 h at RT. The FRET peptide (8 μM, 2.5 μL), which is a phosphorylation target for GSK3α, and ATP (40 μM, 2.5 μL) was then added to the enzyme/compound mixture and the resulting mixture incubated for 1 h at RT. Development reagent (protease, 5 μL) was added for 1 h prior to detection in a fluorescence microplate reader (EnVision, Perkin Elmer).
as §2

[2] = tested on: sputum macrophages from COPD patients; assay: Cytokine production in LPS-treated sputum macrophages from COPD patients; type: cell-based, human
Procedure: Patients with COPD inhaled a nebulised solution of 3% (w/v) hypertonic saline using an ultrasonic nebuliser (Devilbiss, Carthage, Mo.) with tidal breathing for 5 min. This procedure was repeated a maximum of three times until enough sputum was obtained. The sputum samples were homogenized and mixed vigorously using a vortex mixer in 0.02% v/v dithiothreitol (DTT) solution. The samples were re-suspended in PBS (40 mL) followed by centrifugation at 1500 rpm at 4° C. for 10 min to obtain sputum cell pellets. The pellets were washed with PBS (40 mL). The sputum cells were then re-suspended in 4 mL macrophage serum-free medium (macrophage-SFM, Life technologies, containing 20 U/mL penicillin, 0.02 mg/mL streptomycin and 5 μg/mL amphotericin B) and seeded on high bound 96-well plate, followed by incubation for 1 h at 37° C. and at 5% CO2 to allow the macrophages to attach to the bottom of the plate. The cells on the plate were washed with fresh macrophage-SFM (200 μL/well) to remove neutrophils and other contaminated cells. The adherent cells (mainly sputum macrophages) on the plate were used for further analysis. Sputum inductions were conducted in Quintiles Drug Research Unit at Guys Hospital and ethics approval and written informed consent was obtained by Quintiles.
Where appropriate, 1 μL of a solution containing either the test compound or reference article at the stated concentrations (either 0.1 μg/mL, 0.01 μg/mL, or 0.001 μg/mL) or alternatively 1 μL of DMSO as the vehicle control was added to each well (200 μL in media) and the cells were incubated for 2 h. The cells were stimulated with LPS solution (50 μL, final concentration: 1 μg/mL) and incubated for 18 h at 37° C. and 5% CO2. The supernatant was then collected and kept at −80° C. Suitable luminex kits were used to measure the selected analytes. After thawing the supernatant, the magnetic antibody beads were multiplexed and incubated in a 96-well plate with standard, background solution or the appropriate volume of sample overnight with shaking at 4° C. After washing twice with 200 μL of wash buffer provided by the kit per well using a magnetic plate washer, the beads were incubated for 1 h at RT with the biotin conjugated antibody solution provided by the kit with shaking. Streptavidin solution was added for 30 min with shaking at RT. After washing with 200 μL wash buffer per well, the beads were resuspended in sheath fluid (150 μL) and analyzed immediately. The level of each analyte in the supernatant was calculated using Xcel Fit software with a 4 or 5-parameter equation using each standard curve. The inhibitions of each cytokine production were calculated at each concentration by comparison with vehicle control.

d-U937 cells = assay: Cell viability: MTT assay in differentiated U937 cells; type: cell-based, human; conditions: 10 μg/mL
Procedure: Differentiated U937 cells were pre-incubated with each test compound (final concentration 10 μg/mL in 200 μL media indicated below) under two protocols: the first for 4 h in 5% FCS RPMI1640 media and the second in 10% FCS RPMI1640 media for 24 h. The supernatant was replaced with new media (200 μL) and MTT stock solution (10 μL, 5 mg/mL) was added to each well. After incubation for 1 h the media were removed, DMSO (200 μL) was added to each well and the plates were shaken lightly for 1 h prior to reading the absorbance at 550 nm. The percentage loss of cell viability was calculated for each well relative to vehicle (0.5% DMSO) treatment. Consequently an apparent increase in cell viability for drug treatment relative to vehicle is tabulated as a negative percentage.

PBMCs (mitosis) = assay: Cell mitosis assay in PHA-treated PBMCs; type: cell-based, human
Procedure: Peripheral blood mononucleocytes (PBMCs) from healthy subjects were separated from whole blood (Quintiles, London, UK) using a density gradient (Histopaquee-1077, Sigma-Aldrich, Poole, UK). The PBMCs (3 million cells per sample) were subsequently treated with 2% PHA (Sigma-Aldrich, Poole, UK) for 48 h, followed by a 20 h exposure to varying concentrations of test compounds. At 2 h before collection, PBMCs were treated with demecolcine (0.1 μg/mL; Life Technologies, Paisley, UK,) to arrest cells in metaphase.

## CCc1cncc(Nc2cc(COc3ccc(NC(=O)Nc4cc(C(C)(C)C)nn4-c4ccc(C)cc4)c4ccccc34)ccn2)n1 [Example 2, 1-(3-(tert-Butyl)-1-(p-tolyl)-1H-pyrazol-5-yl)-3-(4-((2-((6-ethylpyrazin-2-yl)amino)pyridin-4-yl)methoxy)naphthalen-1-yl)urea]
Syk
  inhibitory activity against Syk (in words): very much weaker than the Reference Compound
[1]
  inhibition of HRV-induced IL-8 (FIG. 1): dose-dependent inhibition
GSK 3α enzyme isoform
  inhibitory activity against GSK3a (in words): very much weaker than the Reference Compound
[2]
  inhibition of pro-inflammatory cytokine production in sputum macrophage compared with fluticasone propionate: higher efficacy
d-U937 cells; 4 h
  MTT Assay Cell viability at time point indicated in d-U937 Cells, 4 h: − (−ve and +ve indicate the value is below and above, respectively, the no significant effect threshold defined as 30% inhibition at 10 μg/mL at the time point indicated)
d-U937 cells; 24 h
  MTT Assay Cell viability at time point indicated in d-U937 Cells, 24 h: − (−ve and +ve indicate the value is below and above, respectively, the no significant effect threshold defined as 30% inhibition at 10 μg/mL at the time point indicated)
PBMCs (mitosis)
  impact on cell division (mitosis) compared with Reference Compound: markedly less activity
